Assay results reported in PubChem BioAssay AID2060493 (Molecular Pharmacology Branch, DTP, NCI, 2025).

Test system: 616215-338-R-J1-PDC tumor spheroids, viability
Test: Anticancer human tumor 616215-338-R-J1-PDC patient-derived colon adenocarcinoma cell line growth inhibition [GQUAD]
Details: spheroids with HUVEC and MSC; for IC50: curve of first compound; for viability, T/C: stronger effect = lower value
Summary of the method: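 Multi-cell-type spheroids of tumor cells with HUVEC and mesenchymal stem cells, treated with drug combinations. Concentrations descend in half-log steps from near clinical Cmax, or from 10 microM where Cmax is unknown; viability read-out.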

[1] = second compound 0.0316 µM, first compound 0.0316 µM
[2] = second compound 0.0316 µM, first compound 0.1 µM
[3] = second compound 0.0316 µM, first compound 0.316 µM
[4] = second compound 0.0316 µM, first compound 1 µM
[5] = second compound 0.0316 µM, first compound 3.16 µM
[6] = second compound 0.0316 µM, first compound 10 µM
[7] = second compound 0.1 µM, first compound 0.0316 µM
[8] = second compound 0.1 µM, first compound 0.1 µM
[9] = second compound 0.1 µM, first compound 0.316 µM
[10] = second compound 0.1 µM, first compound 1 µM
[11] = second compound 0.1 µM, first compound 3.16 µM
[12] = second compound 0.1 µM, first compound 10 µM
[13] = second compound 0.316 µM, first compound 0.0316 µM
[14] = second compound 0.316 µM, first compound 0.1 µM
[15] = second compound 0.316 µM, first compound 0.316 µM
[16] = second compound 0.316 µM, first compound 1 µM
[17] = second compound 0.316 µM, first compound 3.16 µM
[18] = second compound 0.316 µM, first compound 10 µM
[19] = second compound 1 µM, first compound 0.0316 µM
[20] = second compound 1 µM, first compound 0.1 µM
[21] = second compound 1 µM, first compound 0.316 µM
[22] = second compound 1 µM, first compound 1 µM
[23] = second compound 1 µM, first compound 3.16 µM
[24] = second compound 1 µM, first compound 10 µM
[25] = second compound 3.16 µM, first compound 0.0316 µM
[26] = second compound 3.16 µM, first compound 0.1 µM
[27] = second compound 3.16 µM, first compound 0.316 µM
[28] = second compound 3.16 µM, first compound 1 µM
[29] = second compound 3.16 µM, first compound 3.16 µM
[30] = second compound 3.16 µM, first compound 10 µM
[31] = second compound 10 µM, first compound 0.0316 µM
[32] = second compound 10 µM, first compound 0.1 µM
[33] = second compound 10 µM, first compound 0.316 µM
[34] = second compound 10 µM, first compound 1 µM
[35] = second compound 10 µM, first compound 3.16 µM
[36] = second compound 10 µM, first compound 10 µM
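Note: spheroids exposed to agents for 7 days before readout.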
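Throughout, for viability, T/C: percent viability relative to DMSO vehicle control wells taken as 100%.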

With `CC(C)(O)C1CCC(Nc2ccc3ncc(-c4cccc(C(F)(F)F)c4)n3n2)CC1` (stereo unspecified) + CN(C)c1ccc(Nc2c3ccc(NC(=O)CCN4CCCC4)cc3nc3cc(NC(=O)CCN4CCCC4)ccc23)cc1 the IC50 (second compound 0.0316 µM) was 0.634 µM, the IC50 (second compound 0.1 µM) was 0.726 µM and the IC50 (second compound 0.316 µM) was 0.64 µM. It also gave an IC50 (second compound 1 µM) of 0.711 µM, an IC50 (second compound 3.16 µM) of 0.585 µM and an IC50 (second compound 10 µM) of 0.447 µM. The viability, T/C [1] was 111%, the viability, T/C [2] was 106% and the viability, T/C [3] was 101%. For the same compound, the viability, T/C [4] was 17%, the viability, T/C [5] was 0.97% and the viability, T/C [6] was 1.74%. For the same compound, the viability, T/C [7] was 96.3%, the viability, T/C [8] was 104% and the viability, T/C [9] was 94.7%. The viability, T/C [10] was 32.7%, the viability, T/C [11] was 1.16% and the viability, T/C [12] was 1.76%. The viability, T/C [13] was 106%, the viability, T/C [14] was 101% and the viability, T/C [15] was 91.2%. It also gave a viability, T/C [16] of 24.1%, a viability, T/C [17] of 1.32% and a viability, T/C [18] of 2.9%. For the same compound, the viability, T/C [19] was 93.6%, the viability, T/C [20] was 102% and the viability, T/C [21] was 103%. It also gave a viability, T/C [22] of 29.2%, a viability, T/C [23] of 2.03% and a viability, T/C [24] of 3.51%. For the same compound, the viability, T/C [25] was 93.1%, the viability, T/C [26] was 92.8% and the viability, T/C [27] was 86.3%. It also gave a viability, T/C [28] of 18.4%, a viability, T/C [29] of 3.83% and a viability, T/C [30] of 1.76%. For the same compound, the viability, T/C [31] was 89.9%, the viability, T/C [32] was 97.8% and the viability, T/C [33] was 63.8%. It also gave a viability, T/C [34] of 15.6%, a viability, T/C [35] of 0.42% and a viability, T/C [36] of 0.5%.

With `CC(=O)O[C@H]1C(=O)[C@@]2(C)[C@H]([C@H](OC(=O)c3ccccc3)[C@]3(O)C[C@H](OC(=O)[C@H](O)[C@@H](NC(=O)c4ccccc4)c4ccccc4)C(C)=C1C3(C)C)[C@]1(OC(C)=O)CO[C@@H]1C[C@@H]2O` + Cc1[nH]c2ccc(F)cc2c1-c1nc2c3cccnc3c3ncccc3c2[nH]1 the IC50 (second compound 0.0316 µM) was under 0.0316 µM, the IC50 (second compound 0.1 µM) was under 0.0316 µM and the IC50 (second compound 0.316 µM) was under 0.0316 µM. For the same compound, the IC50 (second compound 1 µM) was under 0.0316 µM, the IC50 (second compound 3.16 µM) was under 0.0316 µM and the IC50 (second compound 10 µM) was under 0.0316 µM. The viability, T/C [1] was 25.5%, the viability, T/C [2] was 21.1% and the viability, T/C [3] was 16.1%. For the same compound, the viability, T/C [4] was 14.5%, the viability, T/C [5] was 13.6% and the viability, T/C [6] was 12.9%. For the same compound, the viability, T/C [7] was 31.7%, the viability, T/C [8] was 15.6% and the viability, T/C [9] was 15.4%. It also gave a viability, T/C [10] of 12.1%, a viability, T/C [11] of 11.7% and a viability, T/C [12] of 13.8%. It also gave a viability, T/C [13] of 22.9%, a viability, T/C [14] of 18.9% and a viability, T/C [15] of 15.5%. It also gave a viability, T/C [16] of 11.6%, a viability, T/C [17] of 13.1% and a viability, T/C [18] of 11.6%. It also gave a viability, T/C [19] of 19.6%, a viability, T/C [20] of 12.4% and a viability, T/C [21] of 12.8%. It also gave a viability, T/C [22] of 11.8%, a viability, T/C [23] of 13.2% and a viability, T/C [24] of 14.7%. For the same compound, the viability, T/C [25] was 14.9%, the viability, T/C [26] was 14.7% and the viability, T/C [27] was 15.1%. It also gave a viability, T/C [28] of 10.2%, a viability, T/C [29] of 10.8% and a viability, T/C [30] of 11.1%. It also gave a viability, T/C [31] of 16%, a viability, T/C [32] of 12.5% and a viability, T/C [33] of 14.9%. For the same compound, the viability, T/C [34] was 11.5%, the viability, T/C [35] was 10.1% and the viability, T/C [36] was 10.8%.

Work on `C=CC(=O)N1CCN(c2nc(=O)n(-c3c(C)ccnc3C(C)C)c3nc(-c4c(O)cccc4F)c(F)cc23)C(C)C1` (stereo unspecified) + Cc1[nH]c2ccc(F)cc2c1-c1nc2c3cccnc3c3ncccc3c2[nH]1 yielded an IC50 (second compound 0.0316 µM) of over 10 µM, an IC50 (second compound 0.1 µM) of over 10 µM and an IC50 (second compound 0.316 µM) of over 10 µM. It also gave an IC50 (second compound 1 µM) of over 10 µM, an IC50 (second compound 3.16 µM) of over 10 µM and an IC50 (second compound 10 µM) of over 10 µM. It also gave a viability, T/C [1] of 102%, a viability, T/C [2] of 95% and a viability, T/C [3] of 97.3%. The viability, T/C [4] was 104%, the viability, T/C [5] was 89.7% and the viability, T/C [6] was 82.1%. The viability, T/C [7] was 102%, the viability, T/C [8] was 92.5% and the viability, T/C [9] was 102%. For the same compound, the viability, T/C [10] was 96.9%, the viability, T/C [11] was 93.9% and the viability, T/C [12] was 71.6%. It also gave a viability, T/C [13] of 87.4%, a viability, T/C [14] of 98.6% and a viability, T/C [15] of 96.8%. It also gave a viability, T/C [16] of 108%, a viability, T/C [17] of 88.6% and a viability, T/C [18] of 67.7%. For the same compound, the viability, T/C [19] was 99.7%, the viability, T/C [20] was 93.2% and the viability, T/C [21] was 90.8%. It also gave a viability, T/C [22] of 105%, a viability, T/C [23] of 92.5% and a viability, T/C [24] of 71.8%. The viability, T/C [25] was 100%, the viability, T/C [26] was 88.2% and the viability, T/C [27] was 107%. It also gave a viability, T/C [28] of 88.3%, a viability, T/C [29] of 87.6% and a viability, T/C [30] of 59.1%. The viability, T/C [31] was 99.7%, the viability, T/C [32] was 84.9% and the viability, T/C [33] was 88%. It also gave a viability, T/C [34] of 90.2%, a viability, T/C [35] of 86.2% and a viability, T/C [36] of 69.2%.
